Format in all cases: biochemical
For one experiment, the system named is α-Amylase. The experiment can be described thus: Determination of α-Amylase activity with reagent paper (Beispiel 21). As to conditions: filter paper soaked with substrate in Citratpuffer pH 6; sample with amylase plus α- and ß-Glucosidase; after a few minutes. The source says: Bestimmung der α-Amylase-Aktivität
Filterpapier wird mit Resorufin-maltoheptaosid (hergestellt gemäß Beispiel 17), gelöst in Citratpuffer, pH 6, getränkt. Das so ernaltene Reagenzpapier wird nacheinander mit der d-Amylase enthaltenden Probe sowie mit a- und ß-Glucosidase versetzt.
Mit Hilfe von Proben mit bekannter d-Amylase-Konzentration läßt sicn eine Eichkurve ermitteln, anhand derer der uhbekannte d-Amylase-Genalt einer Probe bestimmt werden Kann.

The next experiment concerns the target ß-D-Galaktosidase (Escherichia coli, UniProt P00722). The experiment can be described thus: Kinetics of the enzymatic hydrolysis (Michaelis-Menten). The source says: Bei der Synthese der Glycoside der Resorufin-Derivate der allgemeinen Formel II entstehen nicht-fluoreszierende Verbindungen, aus denen durch enzymatische Spaltung mit Hilfe der entsprechenden Glycosidasen wieder die fluoreszierenden Resorufin-Derivate freigesetzt werden. Die erfindungsgemäßen fluorogenen Resorufin-nerivate besitzen im Vergleich zu den bisher bekannten Glycosiden anderer chromogener bzw. fluorogener Gruppen sehr vorteilhafte Eigenschaften. Als monosubstituierte Derivate weisen sie eine Kinetik der enzymatischen Hydrolyse auf, die sehr einfach durch die Michaelis-Menten-Beziehung beschrieben werden kann. Für das Resorufin-ß-D-galactopyranosid gilt beispielsweise eine Michaelis-Konstante KM = 0,38 mmol/1. Die Hemmung dieser Hydrolyse durch das natürliche Substrat Lactose ist kompetitiv, so daß für bestimmte Untersuchungen der spezifische Umsatz von Glycosiden der Resorufin-Derivate durch Zugabe von natürlichen Glycosiden, wie Lactose im Falle der ß-D-Galaktosidase, definiert und reversibel verändert werden kann.

Experiment [1] concerns the target ß-D-Galactosidase-Antikörper-Konjugat (Escherichia coli, UniProt P00722). As to the kind of experiment: Determination of the activity of conjugated ß-D-Galactosidase, photometric at 578 nm (Beispiel 20). As to conditions: 0,8 mmol/l substrate, 950 ul Reagenslösung + 50 ul Enzym-Konjugat-Lösung, 37° C. The text has this:
(§1) Bestimmung der Aktivität freier und konjugierter ß-D-Galactosidase
(§2) Reagenslösung: • In vorstehend beschriebener Pufferlösung werden 0,8 mmol/1 Resorufin-ß-D-galactopyranosid gelöst.
Enzym-Konjugat-Lösung: • Verwendet wird ein ß-D-Galactosidase-Antikörper-Präparat. Die Herstellung solcher Enzym-Antikörper-Konjugate ist bekannt. Sie ist beispielsweise in Biochem. Biophys. Acta 612, 40 - 49 (1980) beschrieben. Das Präparat wird in Puffer so verdünnt, daß sich eine mit der oben beschriebenen Enzymlösung ungefähr vergleichbare Aktivität ergibt.
(§3) Die Messung erfolgt photometrisch bei 578 nm. 950 ul Reagenslösung werden jeweils in einer 1-cm-Küvette bei 37 °C mit 50 ul Enzymlösung bzw. mit 50 ul Enzym-Konjugat-Lösung vermischt. Als Maß für die Reaktion wird der Extinktionsanstieg pro Zeiteinheit in [mExt/min] ermittelt.

In experiment [2] the target is T1, ß-D-Galactosidase (Escherichia coli, UniProt P00722). As to the kind of experiment: Detection of ß-D-Galactosidase with an indicator film / test strip (Beispiel 19). As to conditions: test strip containing the substrate, dipped in ß-D-Galactosidase solution; 2 Minuten bei Raumtemperatur. The protocol: Nachweis von ß-D-Galactosidase mit Hilfe eines Indlkatorfilms
T1 sequence (P00722 2-1024): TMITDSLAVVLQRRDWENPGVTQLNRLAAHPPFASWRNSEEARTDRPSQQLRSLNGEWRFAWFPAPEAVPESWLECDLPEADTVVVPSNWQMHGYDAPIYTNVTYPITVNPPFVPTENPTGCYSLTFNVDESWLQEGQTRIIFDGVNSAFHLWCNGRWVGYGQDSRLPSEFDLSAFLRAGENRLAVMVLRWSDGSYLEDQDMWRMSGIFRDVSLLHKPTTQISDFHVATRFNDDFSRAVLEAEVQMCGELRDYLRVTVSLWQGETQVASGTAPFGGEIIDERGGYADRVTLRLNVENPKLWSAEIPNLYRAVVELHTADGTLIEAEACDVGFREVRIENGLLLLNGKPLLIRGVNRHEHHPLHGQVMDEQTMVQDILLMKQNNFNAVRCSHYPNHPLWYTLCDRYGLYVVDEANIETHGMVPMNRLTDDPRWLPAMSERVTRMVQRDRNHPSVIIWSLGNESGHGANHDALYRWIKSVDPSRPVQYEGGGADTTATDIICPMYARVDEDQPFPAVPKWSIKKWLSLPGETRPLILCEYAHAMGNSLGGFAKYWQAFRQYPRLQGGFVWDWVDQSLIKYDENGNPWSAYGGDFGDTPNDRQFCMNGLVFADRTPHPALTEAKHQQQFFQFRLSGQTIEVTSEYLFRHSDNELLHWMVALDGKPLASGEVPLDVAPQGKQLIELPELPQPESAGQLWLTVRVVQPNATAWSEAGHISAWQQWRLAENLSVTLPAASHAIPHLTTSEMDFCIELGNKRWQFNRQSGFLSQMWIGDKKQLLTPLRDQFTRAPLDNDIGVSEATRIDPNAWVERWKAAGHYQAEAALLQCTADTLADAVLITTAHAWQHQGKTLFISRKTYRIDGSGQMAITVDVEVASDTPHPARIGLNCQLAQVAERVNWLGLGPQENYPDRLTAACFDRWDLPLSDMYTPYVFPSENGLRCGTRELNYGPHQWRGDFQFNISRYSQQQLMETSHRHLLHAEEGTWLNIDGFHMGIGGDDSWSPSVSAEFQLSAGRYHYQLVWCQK
Zu einer nomogenen Masse werden verarbeitet: • 5 ml einer wäßrigen Lösung mit 0,5 M Kaliumphosphat und • 0,05 M Magnesiumchlorid, pH 7,3 . • 0,13 g Natriumalginat • 8 g einer 50 %igen Dispersion von Polyvinylpropionat • 10 g Kieselgel • 12 ml Wasser • 0,4 g Triton X-100 • 50 mg Resorufin-ß-D-galactopyranosid, in 5 ml Methanol gelöst.
Diese Masse wird auf eine 0,1 mm starke Polycarbonatfolie (poKalon, Fa. Lonza) mit einer Spaltbreite von 0,2 mm aufgetragen. Die Beschichtung wird bei 50° C getrocknet und danach in Stücke von 6 auf 6 mm geschnitten. Diese werden mit Hilfe von Klebeband auf eine 400 um starke Polystyrolfolie aufgeklebt.
Die so erhaltenen Teststreifen werden kurze Zeit in die zu prüfende, ß-D-Galactosidase enthaltende Lösung getaucht. […] Mit Hilfe von Testlösungen mit einem bestimmten, bekannten ß-D-Galactosidase-Gehalt kann man eine Farbskala erhalten, anhand derer der unbekannte Genalt an ß-D-Galactosidase in einer Probe ermittelt werden kann.

In another experiment the target is T2, freie ß-D-Galactosidase (Escherichia coli, UniProt P00722).
T2 construct: purchased
T2 sequence (P00722 2-1024): as above
As to the kind of experiment: Determination of the activity of free ß-D-Galactosidase, photometric at 578 nm (Beispiel 20). As to conditions: 0,8 mmol/l substrate, 950 ul Reagenslösung + 50 ul Enzymlösung (ca. 0,08 U/ml), 37° C. The protocol:
as §1, §2
Enzymlösung: • Handelsübliche ß-D-Galactosidase aus Escherichia coli wird in Puffer gelöst. Die Aktivität dieser Lösung beträgt ca. 0,08 U/ml (bezogen auf die Hersteller-Angaben).
as §3

In experiment [3] the target is T1, ß-D-Galactosidase. The experiment can be described thus: Determination of ß-D-Galactosidase activity, photometric at 579 nm (Beispiel 18). The arrangement: purchased. As to conditions: Extinktionsanstieg pro Zeiteinheit, 950 ul Reagens + 50 ul Enzymlösung (ca. 0,08 U/ml), 37° C, pH 7,3, substrate 0,8 / 3,5 / 1,0 mmol/l in Reagens 1 / 2 / 3. The text has this:
Bestimmung der Aktivität der ß-D-Galactosidase
In der vorstehend beschriebenen Pufferlösung werden 0,8 mmol/1 Resorufin-ß-D-galactopyranosid gelöst.
In der vorstehend beschriebenen Pufferlösung werden 3,5 mmol/1 Resorufin-9-carbonsäure-ß-D-galactopyranosid gelöst.
In der vorstehend beschriebenen Pufferlösung werden 1,0 mmol/1 Resorufin-9-carbonsäuremethylester-ß-D-galactopyranosid gelöst.
Handelsübliche ß-D-Galactosidase aus Escherichia coli wird in der vorstehend genannten Pufferlösung gelöst. Die AKtivität dieser Lösung beträgt ca. 0,08 U/ml (bezogen auf die Hersteller-Angaben).
Die Messung erfolgt photometrisch bei 579 nm.
950 ul Reagens werden in einer 1-cm-Küvette bei 37° C mit 50 ul Enzymlösung vermischt. Als Maß für die Reaktion wird der Extinktionsanstieg pro Zeiteinneit in [mExt/min] ermittelt. Er wird berechnet aus der gemessenen Extinktion durch Division mit der ReaKtionszeit.

Sequence of ß-D-Galaktosidase (P00722 2-1024): as above
Sequence of ß-D-Galactosidase-Antikörper-Konjugat (P00722 2-1024): as above

For the compound `O=c1ccc2nc3ccc(OC4OC(CO)C(OC5OC(CO)C(OC6OC(CO)C(OC7OC(CO)C(OC8OC(CO)C(OC9OC(CO)C(OC%10OC(CO)C(O)C(O)C%10O)C(O)C9O)C(O)C8O)C(O)C7O)C(O)C6O)C(O)C5O)C(O)C4O)cc3oc-2c1` (stereo not drawn) [Beispiel 17, Resorufin-maltoheptaosid], the Rotfärbung entry in the experiment with α-Amylase was “deutlich sicntbare Rotfärbung”.
Consider `OC[C@H]1O[C@@H](O[C@H]2[C@H](O)[C@@H](O)C(O)O[C@@H]2CO)[C@H](O)[C@@H](O)[C@H]1O` (stereo partly drawn) [Lactose, reference compound], for which, on ß-D-Galaktosidase (inhibition of the hydrolysis of Resorufin-ß-D-galactopyranosid by the natural substrate), the “Hemmung dieser Hydrolyse” value is “kompetitiv”.
In general, Km refers to the substrate concentration at which the rate is half of its maximum. As to `O=c1ccc2nc3ccc(O[C@@H]4O[C@H](CO)[C@H](O)[C@H](O)[C@H]4O)cc3oc-2c1` [Reagens 1, Resorufin-ß-D-galactopyranosid], the “Extinktionsanstieg pro Zeiteinheit, Reaktion mit ß-D-Galactosidase-Antikörper-Konjugat” value in experiment [1] is on record as 92 mExt/min. The Reaktionsfarbe entry at ß-D-Galactosidase [2] was “rote Reaktionsfarbe”. The “Extinktionsanstieg pro Zeiteinheit, Reaktion mit der freien ß-D-Galactosidase” value on freie ß-D-Galactosidase is listed as 85 mExt/min. Also, the Reaktion at ß-D-Galactosidase [3] was found to be 85 mExt/min. On ß-D-Galaktosidase (read-out: Michaelis-Konstante KM, enzymatic hydrolysis of the substrate), the Km turned out to be 380 µM.
For “Resorufin-1-carbonsäuremethylester [Beispiel 3]”, the Reaktion on ß-D-Galactosidase [3] is listed as 76 mExt/min.
Resorufin-ß-D-glucosid [Beispiel 2]: at ß-D-Galactosidase [3], the Reaktion came out at 46 mExt/min.

The values above are taken from patent publication EP0156347A2, “Glycosides of resofurin derivatives, method for their preparation and their use in the determination of the activity of glycosidases” (BOEHRINGER MANNHEIM GMBH, priority 1984, dated 1985).
